Our source for the IC50 values is US20240294551A1 (AMGEN INC., priority 2022, published 2024).

The subject of assay [1] is AsPC-1 cells. Put plainly: AsPC-1 CTG Assay (CellTiter-Glo cell viability). The assay is classed as cell-based, human. The settings on record: Homo sapiens, ASPC1, 72 h, first value of the cell, read-out: G12D/C/V Cell Proliferation CTG (72 h) AsPC-1. Summed up: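 IC50 values derive from 4-parameter logistic fits of CellTiter-Glo luminescence, expressed relative to DMSO. Compound dilution series were applied to overnight-seeded AsPC-1 or SW620 cells (RPMI 1640, 10% FBS) for 72 h at 37 °C, 5% CO2.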
For orientation: ATP-based viability assays read luminescence as a measure of living cells.

Assay [2] deals with Phosphorylation of ERK1/2 in AsPC-1 cells. Put plainly: Phospho-ERK1/2 MSD Assay. Conditions: Homo sapiens, ASPC1, 2 h. In kind it is cell-based, human. Summed up: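 Read-out: MSD electrochemiluminescent detection of phosphorylated ERK1/2 in whole-cell lysates, fitted to a 4-parameter logistic curve for IC50. Prior to lysis, AsPC-1 cells (25,000 per well) received a 2 h compound dose-response at 37 °C.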

Assay [3] concerns the target His-tagged KRAS G12D protein (Homo sapiens (Human), UniProt P01116, G12D). Kind of assay: KRAS G12D TR-FRET Assay. The assay is classed as binding. An outline of the steps:
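Each incubation ran at room temperature: enzyme with compound for 30 minutes, peptide for one hour, and detection reagents (0.4 nM europium anti-6×His, 5 nM streptavidin-d2) for one hour more. Protein and peptide stocks were each diluted to 20 nM before addition.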

In assay [4] the target is GDP-bound KRAS protein (aa 1-169), containing both G12D and C118A amino acid substitutions (Homo sapiens (Human), UniProt P01116, C118A/G12D). Kind of assay: KRAS G12D Coupled Nucleotide Exchange Assay. The assay is classed as biochemical.
Setting [5] is: read-out: 2 h p-ERK (AsPC-1 cells), IC50.
Where [6] appears, read: read-out: KRAS G12D Binding IC50.
Where [7] appears, read: read-out: KRAS G12D Coupled Exchange IC50.
[8] abbreviates: read-out: 2 h p-ERK (AsPC-1 cells).
Where [9] appears, read: TR-FRET, read-out: KRAS G12D Binding.
[10] abbreviates: 2 hours compound pre-incubation, read-out: KRAS G12D Coupled Exchange.

Where two headings read alike, the source gives them in different places.

Chain of His-tagged KRAS G12D protein (P01116 other isoform, or with tags, fused parts or gaps G12D): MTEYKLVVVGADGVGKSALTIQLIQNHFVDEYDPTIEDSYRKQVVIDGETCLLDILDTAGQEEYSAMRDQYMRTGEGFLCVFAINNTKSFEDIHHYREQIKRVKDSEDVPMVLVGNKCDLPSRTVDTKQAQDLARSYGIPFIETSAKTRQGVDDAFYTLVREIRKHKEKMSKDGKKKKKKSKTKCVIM
Chain of GDP-bound KRAS protein (aa 1-169), containing both G12D and C118A amino acid substitutions (P01116 other isoform, or with tags, fused parts or gaps G12D/C118A): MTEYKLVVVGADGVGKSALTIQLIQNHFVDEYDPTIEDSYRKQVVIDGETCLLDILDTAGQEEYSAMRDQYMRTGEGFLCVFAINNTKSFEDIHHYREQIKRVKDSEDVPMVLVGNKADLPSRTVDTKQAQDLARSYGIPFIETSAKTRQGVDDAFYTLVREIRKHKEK

As to `O=C1OCCc2c(Cl)cc3[nH]ncc3c2-c2cc3nc(OC[C@@]45CCCN4C[C@H](F)C5)nc(c3cn2)N2CCC[C@]3(C2)C[C@H](C3)O1` [Example 343, (1R,3S)-10-chloro-24-(((2R,7aS)-2-fluorotetrahydro-1H-pyrrolo[1,2-a]pyrrol-7a(5H)-yl)methoxy)-4,6-dioxa-13,14,19,23,25,27-hexaazaheptacyclo[25.3.1.1~1,3~.1~18,22~.0~9,17~.0~12,16~.0~21,26~]tritriaconta-9,11,14,16,18(32),19,21,23,25-nonaen-5-one], the IC50 amounted to 953 nM in assay [1] (AsPC-1, 72 h); 45.2 nM in assay [2] (setting [5]); 22 nM in assay [3] (setting [6]); 13 nM in assay [4] (setting [7]).
With `CN1CCC[C@H]1COc1nc2c3cnc(c(F)c3n1)-c1cc(O)cc3ccc(F)c(c13)CCOC(=O)O[C@]1(C)COCCN2C1` [Example 344, (16S)-23,32-difluoro-28-hydroxy-16-methyl-8-(((2S)-1-methyl-2-pyrrolidinyl)methoxy)-14,17,19-trioxa-3,7,9,11-tetraazahexacyclo[20.7.1.1~2,6~.1~11,16~.0~5,10~.0~26,30~]dotriaconta-1(30),2(32),3,5,7,9,22,24,26,28-decaen-18-one], the IC50 in assay [1] (AsPC-1, 72 h) is 156 nM; in assay [2] (setting [5]), 5.7 nM; in assay [3] (setting [6]) it was 8 nM; in assay [4] (setting [7]), 3 nM.
In the case of `C[C@@]12COCCN(C1)c1nc(OC[C@@]34CCCN3C[C@H](F)C4)nc3c(F)c(ncc13)-c1cc(O)cc3ccc(F)c(c13)CCOC(=O)O2` [Example 345, (16S)-23,32-difluoro-8-(((2R,7aS)-2-fluorotetrahydro-1H-pyrrolo[1,2-a]pyrrol-7a(5H)-yl)methoxy)-28-hydroxy-16-methyl-14,17,19-trioxa-3,7,9,11-tetraazahexacyclo[20.7.1.1~2,6~.1~11,16~.0~5,10~.0~26,30~]dotriaconta-1(30),2(32),3,5,7,9,22,24,26,28-decaen-18-one], the IC50 in assay [1] (AsPC-1, 72 h) turned out to be 16 nM; in assay [2] (setting [5]) it was 0.7 nM; in assay [3] (setting [6]) it was 3 nM; in assay [4] (setting [7]), 1 nM.
Turning to `C[C@@]12COCCN(C1)c1nc(OC[C@@]34CCCN3C[C@H](F)C4)nc3cc(ncc13)-c1c(c(Cl)cc3[nH]ncc13)CCCOC(=O)O2` [Example 346, (26S)-18-chloro-4-(((2R,7aS)-2-fluorotetrahydro-1H-pyrrolo[1,2-a]pyrrol-7a(5H)-yl)methoxy)-26-methyl-23,25,28-trioxa-1,3,5,9,14,15-hexaazahexacyclo[24.4.1.1~6,10~.0~2,7~.0~11,19~.0~12,16~]dotriaconta-2,4,6(32),7,9,11,13,16,18-nonaen-24-one], the IC50 in assay [1] (AsPC-1, 72 h) came out at 297 nM; in assay [2] (setting [5]), 13.4 nM; in assay [3] (setting [6]), 5 nM; in assay [4] (setting [7]) it was 2 nM.
As to `C[C@@H]1CN(c2nc3c4cnc(c(F)c4n2)-c2c(c(Cl)cc4[nH]ncc24)CCCOC(=O)O[C@@H]2COCCN3C2)CCN1` [Example 348, (26S)-18-chloro-32-fluoro-4-((3R)-3-methyl-1-piperazinyl)-23,25,28-trioxa-1,3,5,9,14,15-hexaazahexacyclo[24.4.1.1~6,10~.0~2,7~.0~11,19~.0~12,16~]dotriaconta-2,4,6,8,10(32),11,13,16,18-nonaen-24-one], the IC50 in assay [1] (AsPC-1, 72 h) amounted to 2220 nM; in assay [2] (setting [5]), 298 nM; in assay [3] (setting [6]), 13 nM; in assay [4] (setting [7]), 4 nM.
For the molecule `Cc1cc2[nH]ncc2c2c1CCOC(=O)O[C@H]1C[C@]3(CCCN(C3)c3nc(OC[C@@]45CCCN4C[C@H](F)C5)nc4cc-2ncc34)C1` [Example 349, (1R,3S)-24-(((2R,7aS)-2-fluorotetrahydro-1H-pyrrolo[1,2-a]pyrrol-7a(5H)-yl)methoxy)-10-methyl-4,6-dioxa-13,14,19,23,25,27-hexaazaheptacyclo[25.3.1.1~1,3~.1~18,22~.0~9,17~.0~12,16~.0~21,26~]tritriaconta-9,11,14,16,18(32),19,21,23,25-nonaen-5-one], the IC50 in assay [1] (AsPC-1, 72 h) worked out at 645 nM; in assay [2] (setting [5]), 30.4 nM; in assay [3] (setting [6]) it was 5 nM; in assay [4] (setting [7]), 2 nM.
On to `O=C1OCCc2c(Cl)cc3[nH]ncc3c2-c2ncc3c(nc(OC[C@@]45CCCN4C[C@@H](F)C5)nc3c2F)N2CCC[C@]3(C2)C[C@H](C3)O1` [Example 350, (1R,3S)-10-chloro-32-fluoro-24-(((2S,7aS)-2-fluorotetrahydro-1H-pyrrolo[1,2-a]pyrrol-7a(5H)-yl)methoxy)-4,6-dioxa-13,14,19,23,25,27-hexaazaheptacyclo[25.3.1.1~1,3~.1~18,22~.0~9,17~.0~12,16~.0~21,26~]tritriaconta-9,11,14,16,18(32),19,21,23,25-nonaen-5-one], for which the IC50 in assay [1] (AsPC-1, 72 h) was 545 nM; in assay [2] (setting [5]), 58.1 nM; in assay [3] (setting [6]), 6 nM; in assay [4] (setting [7]), 3 nM.
On to `O=C1OCCCc2c(Cl)cc(O)cc2-c2ncc3c(nc(OC[C@@]45CCCN4C[C@H](F)C5)nc3c2F)N2CCOC[C@H](C2)O1` [Example 355, (23S)-15-chloro-29-fluoro-4-(((2R,7aS)-2-fluorotetrahydro-1H-pyrrolo[1,2-a]pyrrol-7a(5H)-yl)methoxy)-13-hydroxy-20,22,25-trioxa-1,3,5,9-tetraazapentacyclo[21.4.1.1~6,10~.0~2,7~.0~11,16~]nonacosa-2,4,6,8,10(29),11,13,15-octaen-21-one], for which the IC50 in assay [1] (AsPC-1, 72 h) was determined as 82 nM; in assay [2] (setting [5]), 5.2 nM; in assay [3] (setting [6]), 2 nM; in assay [4] (setting [7]), 1 nM.
Regarding `O=C1OCCc2c(F)cc3[nH]ncc3c2-c2ncc3c(nc(OC[C@@]45CCCN4C[C@H](F)C5)nc3c2F)N2CCC[C@]3(C2)C[C@H](C3)O1` [Example 356, (1R,3S)-10,32-difluoro-24-(((2R,7aS)-2-fluorotetrahydro-1H-pyrrolo[1,2-a]pyrrol-7a(5H)-yl)methoxy)-4,6-dioxa-13,14,19,23,25,27-hexaazaheptacyclo[25.3.1.1~1,3~.1~18,22~.0~9,17~.0~12,16~.0~21,26~]tritriaconta-9,11,14,16,18(32),19,21,23,25-nonaen-5-one], the IC50 was 94 nM in assay [1] (AsPC-1, 72 h); 8.2 nM in assay [2] (setting [5]); 4 nM in assay [3] (setting [6]); 3 nM in assay [4] (setting [7]).
On to `O=C1OCCc2c(Cl)cc3[nH]ncc3c2-c2cc3nc(OC[C@@]45CCCN4C[C@H](F)C5)nc(c3nn2)N2CCC[C@]3(C2)C[C@H](C3)O1` [Example 357, (1R,3S)-10-chloro-24-(((2R,7aS)-2-fluorotetrahydro-1H-pyrrolo[1,2-a]pyrrol-7a(5H)-yl)methoxy)-4,6-dioxa-13,14,19,20,23,25,27-heptaazaheptacyclo[25.3.1.1~1,3~.1~18,22~.0~9,17~.0~12,16~.0~21,26~]tritriaconta-9,11,14,16,18(32),19,21,23,25-nonaen-5-one], for which the IC50 in assay [1] (AsPC-1, 72 h) was 1970 nM; in assay [2] (setting [5]), 234 nM; in assay [3] (setting [6]), 14 nM; in assay [4] (setting [7]), 10 nM.
For the molecule `C#CCO[C@@H]1CN2CCC[C@@]2(COc2nc3c4cnc(c(F)c4n2)-c2c(c(Cl)cc4[nH]ncc24)CCCOC(=O)O[C@@H]2COCCN3C2)C1` [Example 369, (26S)-18-Chloro-32-fluoro-4-(((2S,7aS)-2-(2-propyn-1-yloxy)tetrahydro-1H-pyrrolo[1,2-a]pyrrol-7a(5H)-yl)methoxy)-23,25,28-trioxa-1,3,5,9,14,15 hexaazahexacyclo[24.4.1.1˜6,10˜.0˜2,7˜.0˜11,19˜.0˜12,16˜]dotriaconta-2,4,6,8,10(32),11,13,16,18-nonaen-24-one], the IC50 is 5000 nM in assay [1] (AsPC-1, 72 h); 363 nM in assay [2] (setting [5]); 13 nM in assay [3] (setting [6]); 8 nM in assay [4] (setting [7]).
`Fc1c2ncc3c(nc(OC[C@@]45CCCN4C[C@H](F)C5)nc13)N1CCO[C@@H](Cc3ncc(o3)CCc3c(Cl)cc4[nH]ncc4c3-2)C1` [Example 374]: the IC50 in assay [1] (AsPC-1 cells (G12D), 72 h) amounted to 127 nM; in assay [2] (setting [8]), 32.7 nM; in assay [3] (setting [9]), 5 nM; in assay [4] (setting [10]), 4 nM.
In the case of `Fc1c2ncc3c(nc(OC[C@@]45CCCN4C[C@H](F)C5)nc13)N1CCO[C@H](C1)c1coc(n1)CCCc1c(Cl)cc3[nH]ncc3c1-2` [Example 390, (18R)-9-chloro-31-fluoro-25-(((2R,7aS)-2-fluorotetrahydro-1H-pyrrolo[1,2-a]pyrrol-7a(5H)-yl)methoxy)-15,19-dioxa-5,6,22,24,26,30,33-heptaazaheptacyclo[25.3.1.1~14,17~.1~18,22~.0~2,10~.0~3,7~.0~23,28~]tritriaconta-1(31),2,4,7,9,14(33),16,23,25,27,29-undecaene], the IC50 is 74 nM in assay [1] (AsPC-1 cells (G12D), 72 h); 9.5 nM in assay [2] (setting [8]); 5 nM in assay [3] (setting [9]); 3 nM in assay [4] (setting [10]).
